# Laboratory results reported in the Kinase Knowledgebase extract (Sharma et al. 2016).
# Assays:
# [1] = target: EGFR (human) (UniProt P00533); conditions: 3t3
# [2] = target: EGFR (UniProt P00533)
# EGFR, sequence (P00533 whole entry, looked up): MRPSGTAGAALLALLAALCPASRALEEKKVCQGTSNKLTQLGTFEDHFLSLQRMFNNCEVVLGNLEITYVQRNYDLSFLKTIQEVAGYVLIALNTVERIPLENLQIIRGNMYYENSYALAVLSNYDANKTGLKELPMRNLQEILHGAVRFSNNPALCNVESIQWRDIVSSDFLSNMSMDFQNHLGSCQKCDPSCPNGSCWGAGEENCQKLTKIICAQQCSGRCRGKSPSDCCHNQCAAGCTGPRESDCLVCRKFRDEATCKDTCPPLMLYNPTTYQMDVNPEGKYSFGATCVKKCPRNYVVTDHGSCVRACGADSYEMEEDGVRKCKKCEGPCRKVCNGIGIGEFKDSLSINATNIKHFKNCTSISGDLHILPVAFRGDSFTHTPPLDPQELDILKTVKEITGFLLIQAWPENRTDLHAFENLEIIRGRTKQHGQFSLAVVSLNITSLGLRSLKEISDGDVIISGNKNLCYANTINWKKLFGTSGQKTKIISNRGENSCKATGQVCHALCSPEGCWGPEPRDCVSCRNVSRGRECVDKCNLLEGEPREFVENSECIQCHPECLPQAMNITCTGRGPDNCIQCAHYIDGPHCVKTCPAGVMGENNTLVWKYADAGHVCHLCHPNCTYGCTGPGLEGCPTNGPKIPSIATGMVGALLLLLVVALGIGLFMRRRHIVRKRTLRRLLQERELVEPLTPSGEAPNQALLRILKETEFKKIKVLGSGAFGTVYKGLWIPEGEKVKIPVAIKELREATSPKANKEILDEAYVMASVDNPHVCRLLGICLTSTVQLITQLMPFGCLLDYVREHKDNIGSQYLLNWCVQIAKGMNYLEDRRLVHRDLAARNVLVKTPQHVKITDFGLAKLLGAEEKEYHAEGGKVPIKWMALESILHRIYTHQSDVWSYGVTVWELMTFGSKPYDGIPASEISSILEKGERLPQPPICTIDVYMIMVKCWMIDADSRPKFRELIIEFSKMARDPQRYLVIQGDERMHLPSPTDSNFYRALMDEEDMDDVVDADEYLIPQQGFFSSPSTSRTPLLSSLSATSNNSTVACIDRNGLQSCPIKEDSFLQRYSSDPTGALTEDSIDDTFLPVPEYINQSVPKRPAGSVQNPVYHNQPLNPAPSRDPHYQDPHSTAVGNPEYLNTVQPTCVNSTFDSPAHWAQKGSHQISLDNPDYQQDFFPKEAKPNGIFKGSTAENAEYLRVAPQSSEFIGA
# EGFR (human), sequence (P00533 whole entry, looked up): as above
Structure (SMILES),IC50 [1] [µM],IC50 [2] [µM]
Cc1[nH]c(/C=C2/C(=O)Nc3cc(-c4ccccc4)ccc32)c(C)c1CCCN1CCOCC1,> 50,> 100
CCOc1cccc(-c2ccc3c(c2)NC(=O)/C3=C\c2[nH]c(C)c(CCC(=O)O)c2C)c1,24.7,–
Cc1c(CCC(=O)O)c[nH]c1/C=C1/C(=O)Nc2ccccc21,> 50,–
COc1ccc(-c2ccc3c(c2)NC(=O)/C3=C\c2[nH]cc(CCC(=O)O)c2C)cc1,36.8,–
COC(=O)c1ccc2c(c1)/C(=C/c1[nH]cc(CCC(=O)O)c1C)C(=O)N2,> 50,–
COc1cc2c(cc1OC)/C(=C/c1[nH]cc(CCC(=O)O)c1C)C(=O)N2,> 50,–
CCOc1cccc(-c2ccc3c(c2)NC(=O)/C3=C\c2[nH]cc(CCC(=O)O)c2C)c1,37.2,–
Cc1cccc2c1/C(=C\c1[nH]cc(CCC(=O)O)c1C)C(=O)N2,> 50,–
Cc1c(CCC(=O)O)c[nH]c1/C=C1/C(=O)Nc2ccc(Br)cc21,> 50,–
COc1ccc(-c2ccc3c(c2)NC(=O)/C3=C\c2[nH]c(C)c(CCCN3CCOCC3)c2C)cc1,> 50,> 100
Cc1c(CCC(=O)O)c[nH]c1/C=C1/C(=O)Nc2ccc(I)cc21,> 50,–
Cc1c(CCC(=O)O)c[nH]c1/C=C1/C(=O)Nc2ccc(Cl)cc21,12,–
Cc1c(CCC(=O)O)c[nH]c1/C=C1/C(=O)Nc2cc(Br)ccc21,> 50,–
CCc1ccc2c(c1)/C(=C/c1[nH]cc(CCC(=O)O)c1C)C(=O)N2,> 50,–
COc1ccccc1-c1ccc2c(c1)NC(=O)/C2=C\c1[nH]c(C)c(CCCN2CCOCC2)c1C,3.9,> 100
COc1ccc2c(c1)NC(=O)/C2=C\c1[nH]cc(CCC(=O)O)c1C,> 50,–
COc1ccc2c(c1)/C(=C/c1[nH]cc(CCC(=O)O)c1C)C(=O)N2,> 50,–
COc1ccc(-c2ccc3c(c2)NC(=O)/C3=C\c2[nH]c(C)c(CCC(=O)O)c2C)cc1,> 50,–
COc1cccc(-c2ccc3c(c2)NC(=O)/C3=C\c2[nH]cc(CCC(=O)O)c2C)c1,30.6,–
Cc1c(CCC(=O)O)c[nH]c1/C=C1/C(=O)Nc2cc(Cl)ccc21,> 50,–
COc1cccc(-c2ccc3c(c2)NC(=O)/C3=C\c2[nH]c(C)c(CCCN3CCOCC3)c2C)c1,41.9,> 100
Cc1c(CCC(=O)O)c[nH]c1/C=C1/C(=O)Nc2cc(-c3ccccc3)ccc21,30.5,–

# Further lines, results first:
IC50 [1] [µM],IC50 [2] [µM],Structure (SMILES)
25.4,–,Cc1ccc2c(c1)/C(=C\c1[nH]c(C)c(CCCN(C)C)c1C)C(=O)N2
4,> 100,Cc1[nH]c(/C=C2/C(=O)Nc3cc(-c4ccccc4)ccc32)c(C)c1CCCN(C)C
6.59,–,Cc1[nH]c(/C=C2/C(=O)Nc3ccc(S(N)(=O)=O)cc32)c(C)c1CCCN(C)C
20.2,–,Cc1cccc2c1/C(=C\c1[nH]c(C)c(CCCN(C)C)c1C)C(=O)N2
> 50,–,Cc1[nH]c(/C=C2/C(=O)Nc3ccc(I)cc32)c(C)c1CCC(=O)O
9.56,22.8,COc1ccccc1-c1ccc2c(c1)NC(=O)/C2=C\c1[nH]c(C)c(CCCN(C)C)c1C
4.1,> 100,Cc1[nH]c(/C=C2/C(=O)Nc3ccc(Br)cc32)c(C)c1CCCN(C)C
12.6,> 100,Cc1[nH]c(/C=C2/C(=O)Nc3ccccc32)c(C)c1CCCN(C)C
> 50,–,Cc1ccc2c(c1)/C(=C\c1[nH]cc(CCC(=O)O)c1C)C(=O)N2
7.49,> 100,Cc1[nH]c(/C=C2/C(=O)Nc3ccc(Cl)cc32)c(C)c1CCCN(C)C
29.8,–,Cc1[nH]c(/C=C2/C(=O)Nc3ccc(S(=O)(=O)N4CCOCC4)cc32)c(C)c1CCCN(C)C
> 50,–,Cc1cccc2c1/C(=C\c1[nH]c(C)c(CCC(=O)O)c1C)C(=O)N2
11.2,–,Cc1[nH]c(/C=C2/C(=O)Nc3ccc(S(=O)(=O)N(C)C)cc32)c(C)c1CCCN(C)C
25.4,86.6,Cc1[nH]c(/C=C2/C(=O)Nc3cc(Cl)ccc32)c(C)c1CCCN(C)C
> 50,–,COc1ccc2c(c1)NC(=O)/C2=C\c1[nH]c(C)c(CCC(=O)O)c1C
25.3,–,Cc1[nH]c(/C=C2/C(=O)Nc3cccc(CCO)c32)c(C)c1CCCN(C)C
> 50,> 100,Cc1[nH]c(/C=C2/C(=O)Nc3ccccc32)c(C)c1CCCN1CCOCC1
9.57,28.1,COc1cccc(-c2ccc3c(c2)NC(=O)/C3=C\c2[nH]c(C)c(CCCN(C)C)c2C)c1
> 50,–,Cc1[nH]c(/C=C2/C(=O)Nc3ccc(Br)cc32)c(C)c1CCC(=O)O
11,> 100,COc1ccc2c(c1)/C(=C/c1[nH]c(C)c(CCCN(C)C)c1C)C(=O)N2
> 50,–,Cc1[nH]c(/C=C2/C(=O)Nc3ccc(Cl)cc32)c(C)c1CCC(=O)O
> 50,–,Cc1ccc2c(c1)/C(=C\c1[nH]c(C)c(CCC(=O)O)c1C)C(=O)N2
27.5,> 100,COc1ccc2c(c1)NC(=O)/C2=C\c1[nH]c(C)c(CCCN(C)C)c1C
8.38,–,Cc1[nH]c(/C=C2\C(=O)Nc3ccc(S(=O)(=O)NC(C)C)cc32)c(C)c1CCCN(C)C
> 50,–,Cc1[nH]c(/C=C2/C(=O)Nc3cc(O)ccc32)c(C)c1CCC(=O)O
3.86,> 100,COc1ccc(-c2ccc3c(c2)NC(=O)/C3=C\c2[nH]c(C)c(CCCN(C)C)c2C)cc1
32.7,–,Cc1[nH]c(/C=C2/C(=O)Nc3cc(-c4ccccc4)ccc32)c(C)c1CCC(=O)O
44.6,> 100,Cc1[nH]c(/C=C2/C(=O)Nc3ccc(Br)cc32)c(C)c1CCCN1CCOCC1
